Experimental data published in US20050233984A1, “Composition for preventing or treating degenerative brain diseases comprising a hydrolysate of ginsenosides” (Digital Biotech Co., Ltd., priority 2002, published 2005).

Legend:
[1] = test system: neuroblastoma B103 cell line; assay: MTT test: apoptosis induced by staurosporin; assay type: cell-based; conditions: B103 cells, staurosporin-only control = 100%
Description: 5×10^3 cells of neuroblastoma B103 cell line (donated by Dr. David Schubert of the Salk Institute, USA) were placed in each well of a 96-well plate with 100 μl of DMEM (Dulbecco's Minimal Eagle's Medium) containing 10% fetal bovine serum (FBS), and cultured at 37° C. under 8% CO2 for 1 day. After changing the medium to serum-free DMEM, the cells were treated with various concentrations of test compounds and, 1 hour later, with 25 μM of beta-amyloid (25-35 peptide; US peptide, CA, USA). The cells were cultured at 37° C. for 18 hours, treated with 15 μl of MTT solution [10 mg/ml solution of 3-(4,5-dimethyl-2-thiazolyl)-2,5-diphenyl-2H-tetrazolium bromide in phosphate buffered saline (PBS)], and allowed to react at 37° C. for 3 to 4 hours. 100 μl of lysis buffer (10% SDS, 50% dimethylformamide, pH 4.7) was added to the wells, and the cells were cultured overnight at room temperature and relative humidity of 90%. Optical density (OD) of each well was measured at […] and 630 nm, respectively, using a scanning multiwell spectrophotometer, and then the OD value at 630 nm was subtracted from that at 570 nm.
Further, in order to examine whether compounds originating from ginseng can block apoptosis, […], and the survival rates of the neural cells were determined.

α-secretase = assay: sAPPα secretion by Western blotting in B103 cells; assay type: cell-based; conditions: 1 μM, 18 hours, compared with untreated control, FIG. 5
Description: In order to examine whether the ginseng-originated compounds can inhibit beta-amyloid production, the activity of α-secretase, which cleaves beta-amyloid, was examined.
1×10^6 cells of neuroblastoma B103 cell line (donated by Dr. David Schubert of the Salk Institute, USA), which secretes APP (amyloid precursor protein), were plated on a […] with 100 μl of DMEM medium containing 10% FBS (Fetal Bovine Serum) and cultured overnight at […] under 8% CO2. The medium was replaced with serum-free DMEM (Gibco, USA), and PPD, PPT or PDBu (phorbol-12, 13-dibutyrate: Sigma Co., USA) was added thereto at a concentration of 1 μM each. The cells were cultured further for 18 hours. The supernatant was isolated from each culture solution and concentrated through a concentration filter (viva spin centricon, obtained from: Vivascience, Binbrook Hill, Binbrook, England). The concentrate was prepared to have a protein concentration of 2 μg/ml and then subjected to electrophoresis on a 8% SDS-PAGE gel.
Protein bands on the gel were transferred to PVDF (polyvinylidene fluoride) membrane (Millipore Co., Bedford, Mass., USA) and blocked with 5% skim milk. The bands on PVDF were reacted with sAPPα-specific antibody 6E10 (1:2000 dilution, Cat. No. 320-05, Senetek, Maryland heights, Mo., USA) at room temperature for 2 hours. […] The protein bands were then quantified via image analysis.

beta-secretase = target: T1, beta-secretase (Rattus norvegicus, UniProt P56819); assay: β-secretase inhibitory activity, fluorometric, B103 cell extract; assay type: biochemical
T1 construct: the cells were lysed up with MEST buffer; endogenous in cells; host or cells: B103 neuroblastoma cell extract (Triton X-100 lysate)
T1 sequence (P56819 46-501): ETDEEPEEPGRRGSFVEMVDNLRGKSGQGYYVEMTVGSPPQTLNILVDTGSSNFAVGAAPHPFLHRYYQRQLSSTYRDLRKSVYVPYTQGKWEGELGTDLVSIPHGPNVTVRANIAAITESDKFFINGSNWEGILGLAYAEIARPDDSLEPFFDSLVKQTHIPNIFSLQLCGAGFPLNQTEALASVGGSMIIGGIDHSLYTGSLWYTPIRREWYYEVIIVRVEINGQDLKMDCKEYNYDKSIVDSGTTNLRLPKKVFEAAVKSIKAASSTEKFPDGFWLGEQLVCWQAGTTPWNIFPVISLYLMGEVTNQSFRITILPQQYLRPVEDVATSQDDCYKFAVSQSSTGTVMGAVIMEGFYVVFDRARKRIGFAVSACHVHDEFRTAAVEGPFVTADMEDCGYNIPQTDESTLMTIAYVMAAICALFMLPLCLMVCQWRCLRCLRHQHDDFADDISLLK
Description: Peptide H4848 (Bachem), a known suppressor of beta-secretase, was used for a comparative agent and PPT was used as a test compound.
1.5×10^6 cells of neuroblastoma B103 cell line secreting APP were plated on a 100 mm dish with DMEM medium containing 10% FBS, and cultured overnight. Then, the cells were lysed up with MEST buffer (20 mM MES, 0.15 M NaCl, 0.5% Triton X-100, pH 6.0 (Bachem)) to obtain a cell extract.
[…] sodium acetate buffer (pH 4.5), distilled water, beta-secretase inhibitor, 5 μM M2465 (Bachem) as a substrate for beta-secretase and MEST buffer were mixed in order, in amounts as shown in Table 5.
The resulting mixtures were reacted at […] for 2 hours, and then read by a fluorometer with 360 nm excitation and 508 nm emission wavelengths. Enzyme inhibitory activity was determined based on the enzyme activity of the control.

[2] = test compound 1 μM + 0.1 μM staurosporin
[3] = test compound 1 μM alone, without staurosporin

| SMILES | Survival rate (%) [1, 2] [%] | Survival rate (%) [1, 3] [%] | sAPPα secretion level (α-secretase) | Survival rate (%) ([1]; test compound 10 μM + 0.1 μM staurosporin) | Survival rate (%) ([1]; test compound 10 μM alone, without staurosporin) | Enzyme Inhibition (% of control) (beta-secretase; 100 nM PPT) | Enzyme Inhibition (% of control) (beta-secretase; 1 μM PPT) | Enzyme Inhibition (% of control) (beta-secretase; 10 μM PPT) | Enzyme Inhibition (% of control) (beta-secretase; 100 μM PPT) | beta-secretase inhibitory activity versus comparative group (in words) (beta-secretase; comparative group: H4848 100 nM) |
| --- | --- | --- | --- | --- | --- | --- | --- | --- | --- | --- |
| CC(C)=CCCC(C)(O)[C@H]1CC[C@]2(C)[C@@H]1[C@H](O)C[C@@H]1[C@@]3(C)CC[C@H](O)C(C)(C)[C@@H]3CC[C@]12C (stereo in doubt) [PPD, protopanaxadiol] | 89.2 ± 1.0 | 176.5 ± 3.5 | higher |  |  |  |  |  |  |  |
| CC(C)=CCC[C@](C)(O)[C@H]1CC[C@]2(C)[C@@H]1[C@H](O)C[C@@H]1[C@@]3(C)CC[C@H](O)C(C)(C)[C@@H]3[C@@H](O)C[C@]12C [PPT, protopanaxatriol] | 107.8 ± 2.3 | 169.7 ± 1.6 | higher | 104.6 ± 2.7 | 173.1 ± 1.2 | 0 % of control | 0.6 % of control | 3.31 % of control | 18.1 % of control | as good as the comparative group |
